ChEMBL document CHEMBL1926641, “Farinamycin, a quinazoline from Streptomyces griseus” (J Nat Prod, 2011)
The source made the active and inactive calls.

Legend:
Penicillium chrysogenum = assay: Antifungal activity against Penicillium notatum JP 36 at <= 100 ug/ml by agar diffusion assay; format: functional, organism-based
Pseudomonas aeruginosa = assay: Antimicrobial activity against Pseudomonas aeruginosa K 799/61 at <= 100 ug/ml by agar diffusion assay; format: functional, organism-based
Mycolicibacterium vaccae = assay: Antimicrobial activity against Mycobacterium vaccae IMET 10670 at <= 100 ug/ml by agar diffusion assay; format: functional, organism-based
Staphylococcus aureus = assay: Antimicrobial activity against Staphylococcus aureus SG 511 at <= 100 ug/ml by agar diffusion assay; format: functional, organism-based
HUVEC = assay: Antiproliferative activity against human HUVEC cells at <= 50 ug/ml; format: cell-based
Candida albicans = assay: Antifungal activity against Candida albicans BMSY 212 at <= 100 ug/ml by agar diffusion assay; format: functional, organism-based
HeLa = assay: Cytotoxicity against human HeLa cells at <= 50 ug/ml; format: functional, cell-based
Escherichia coli = assay: Antimicrobial activity against Escherichia coli SG 458 at <= 100 ug/ml by agar diffusion assay; format: functional, organism-based
K562 = assay: Cytotoxicity against human K562 cells at <= 50 ug/ml; format: functional, cell-based
[1] = system: Sporobolomyces salmonicolor; assay: Antimicrobial activity against Sporobolomyces salmonicolor SBUG 549 at <= 100 ug/ml by agar diffusion assay; format: functional, organism-based
Bacillus subtilis = assay: Antimicrobial activity against Bacillus subtilis ATCC 6633 at <= 100 ug/ml by agar diffusion assay; format: functional, organism-based

Measured: Activity

NC(=O)C1=C(N)[C@@H](O)[C@H](O)[C@@H](Nc2cc(-c3nc4c(O)cccc4c(=O)[nH]3)ccc2O)C1=O [FARINAMYCIN]
Non-toxic: HUVEC
inactive: all other assays above
